In ChEMBL document CHEMBL1135943, “Modifications and structure-activity relationships at the 2-position of 4-sulfonamidopyrimidine derivatives as potent endothelin antagonists” (Bioorg Med Chem Lett, 2002):
In brackets after ≈: the same amount, converted by molar mass.

Columns and labels:
[1] = Water solubility at pH 7.4; assay type: physicochemical
[2] = biological target: T1, Endothelin receptor type B (Rattus norvegicus, UniProt P21451); assay: In vitro inhibition of [125 I]ET-1 binding to Endothelin B receptor (ETB-receptor) in rat cerebellum membranes; assay type: cell membranes, Membrane
T1 sequence (P21451 whole entry): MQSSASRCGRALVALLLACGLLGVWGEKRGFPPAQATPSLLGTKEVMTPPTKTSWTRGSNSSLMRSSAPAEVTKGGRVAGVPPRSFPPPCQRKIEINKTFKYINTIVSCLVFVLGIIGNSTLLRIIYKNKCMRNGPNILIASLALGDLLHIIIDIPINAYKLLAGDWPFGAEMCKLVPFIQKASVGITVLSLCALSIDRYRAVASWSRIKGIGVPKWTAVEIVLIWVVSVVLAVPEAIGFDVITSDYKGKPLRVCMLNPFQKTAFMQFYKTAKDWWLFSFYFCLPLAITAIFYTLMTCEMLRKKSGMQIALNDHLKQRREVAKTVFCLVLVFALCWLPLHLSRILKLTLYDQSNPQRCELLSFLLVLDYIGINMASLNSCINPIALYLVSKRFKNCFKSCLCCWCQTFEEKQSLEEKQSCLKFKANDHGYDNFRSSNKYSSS

[3] = Water solubility at pH 7.5; assay type: physicochemical
Endothelin-1 receptor = biological target: T2, Endothelin-1 receptor (Sus scrofa, UniProt Q29010); assay: In vitro inhibition of [125 I]ET-1 binding to Endothelin A receptor in porcine aortic membrane.; assay type: cell membranes
T2 sequence (Q29010 whole entry): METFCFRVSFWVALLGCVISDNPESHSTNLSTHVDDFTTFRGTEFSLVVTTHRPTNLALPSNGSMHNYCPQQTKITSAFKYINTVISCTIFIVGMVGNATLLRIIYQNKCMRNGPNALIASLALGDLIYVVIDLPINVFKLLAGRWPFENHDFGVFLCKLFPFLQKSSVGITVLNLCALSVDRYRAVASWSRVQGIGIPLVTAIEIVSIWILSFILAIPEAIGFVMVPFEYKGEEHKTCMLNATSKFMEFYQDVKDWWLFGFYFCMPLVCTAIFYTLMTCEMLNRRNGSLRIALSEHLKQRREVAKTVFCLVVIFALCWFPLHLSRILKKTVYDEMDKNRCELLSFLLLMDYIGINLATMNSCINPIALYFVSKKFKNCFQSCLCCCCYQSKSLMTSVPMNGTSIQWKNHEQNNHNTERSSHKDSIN

SMILES	IC50 (Endothelin-1 receptor) [nM]	further results
COc1ccccc1Oc1c(NS(=O)(=O)c2ccc(C(C)(C)C)cc2)ncnc1OCCOc1ncc(Br)cn1		solubility [1]: 160 µg/mL (≈ 254 µM); IC50 [2]: > 1 nM
Cc1ccc(-c2c(NS(=O)(=O)c3ccc(C(C)(C)C)cc3)ncnc2OCCOc2ncc(Br)cn2)cc1	< 0.001	solubility [3]: 1.6 µg/mL (≈ 2.67 µM)
Cc1ccc(-c2c(NS(=O)(=O)c3ccc(C(C)(C)C)cc3)nc(-c3cccs3)nc2OCCOc2ncc(Br)cn2)cc1	3.9	
COc1ccccc1Oc1c(NS(=O)(=O)c2ccc(C(C)(C)C)cc2)nc(C(F)(F)F)nc1OCCOc1ncc(Br)cn1	> 10	
COc1ccccc1Oc1c(NS(=O)(=O)c2ccc(C(C)(C)C)cc2)nc(C)nc1OCCOc1ncc(Br)cn1	2.7	
COc1ccccc1Oc1c(NS(=O)(=O)c2ccc(C(C)(C)C)cc2)nc(SCCO)nc1OCCOc1ncc(Br)cn1	0.15	
COc1ccccc1Oc1c(NS(=O)(=O)c2ccc(C(C)(C)C)cc2)nc(N2CCC(O)CC2)nc1OCCOc1ncc(Br)cn1	0.0025	solubility [1]: 2570 µg/mL (≈ 3520 µM); IC50 [2]: > 1 nM
COc1ccccc1Oc1c(NS(=O)(=O)c2ccc(C(C)(C)C)cc2)nc(NCCO)nc1OCCOc1ncc(Br)cn1	0.0053	solubility [1]: 7320 µg/mL (≈ 10600 µM); IC50 [2]: > 1 nM
COc1ccccc1Oc1c(NS(=O)(=O)c2ccc(C(C)(C)C)cc2)nc(OCCO)nc1OCCOc1ncc(Br)cn1	0.2	
CCCc1nc(NS(=O)(=O)c2ccc(C(C)(C)C)cc2)c(-c2ccc(C)cc2)c(OCCOc2ncc(Br)cn2)n1	1.6	
COc1ccccc1Oc1c(NS(=O)(=O)c2ccc(C(C)(C)C)cc2)nc(N)nc1OCCOc1ncc(Br)cn1	> 10	
COc1ccccc1Oc1c(NS(=O)(=O)c2ccc(C(C)(C)C)cc2)nc(N(C)CCO)nc1OCCOc1ncc(Br)cn1	> 10	
Cc1ccc(-c2c(NS(=O)(=O)c3ccc(C(C)(C)C)cc3)nc(-c3ccccn3)nc2OCCOc2ncc(Br)cn2)cc1	0.043	
CNCCNc1nc(NS(=O)(=O)c2ccc(C(C)(C)C)cc2)c(Oc2ccccc2OC)c(OCCOc2ncc(Br)cn2)n1	> 10	
CCCc1nc(NS(=O)(=O)c2ccc(C(C)(C)C)cc2)c(Oc2ccccc2OC)c(OCCOc2ncc(Br)cn2)n1	0.026	
Cc1ccc(-c2c(NS(=O)(=O)c3ccc(C(C)(C)C)cc3)nc(-c3ccccc3)nc2OCCOc2ncc(Br)cn2)cc1	> 10	
COc1nc(NS(=O)(=O)c2ccc(C(C)(C)C)cc2)c(Oc2ccccc2OC)c(OCCOc2ncc(Br)cn2)n1	> 10	
COc1ccccc1Oc1c(NS(=O)(=O)c2ccc(C(C)(C)C)cc2)nc(SCCC(=O)O)nc1OCCOc1ncc(Br)cn1	10	
COc1ccccc1Oc1c(NS(=O)(=O)c2ccc(C(C)(C)C)cc2)nc(N2CCN(C)CC2)nc1OCCOc1ncc(Br)cn1	0.45	
COc1ccccc1Oc1c(NS(=O)(=O)c2ccc(C(C)(C)C)cc2)nc(NCCCO)nc1OCCOc1ncc(Br)cn1	> 10	
Cc1ccc(-c2c(NS(=O)(=O)c3ccc(C(C)(C)C)cc3)nc(C(C)C)nc2OCCOc2ncc(Br)cn2)cc1	1.1	
